Laboratory results reported in publication PMC7822874, “Chemoprotective antimalarials identified through quantitative high-throughput screening of Plasmodium blood and liver stage parasites” (Scientific Reports, 2021).
Read-outs that look alike come from different tables or passages of the source.

Key:
[1] = in vitro; settings: human, HepG2-A16-CD81EGFP cells, uninfected
[2] = system: Plasmodium falciparum Dd2 asexual blood stage parasites; test: microbe, parasite or virus in culture; parameters: species or system Plasmodium falciparum Dd2 in human erythrocytes; single determination (one 11-point concentration-response curve); settings: Plasmodium falciparum, DD2, Erythrocyte, 72 h; read-out: AC50
[3] = system: P. berghei-ANKA-GFP-LucCON liver stage parasites in HepG2-A16-CD81EGFP cells; test: P. berghei liver stage Pb-Luc assay, Method 1 (UCSD, 1536-well); format: cell-based, Plasmodium berghei; settings: Method 1

Work on `CCCC(=O)Nc1sc2c(c1C(=O)Nc1ccccn1)CCCC2` [MLS000765104-01] yielded a viability at 66 h [1] of 101%.

Work on `COc1ccc(C2CC(c3cccs3)=NN2C(=O)c2ccco2)cc1OC` (stereo not shown) [MLS000769739-01] yielded a viability at 66 h [1] of 101%.

`Cc1n[nH]c(=S)n(/N=C/c2cccs2)c1=O` [MLS000780118-01] showed a viability at 66 h [1] of 98.7%.

In the case of `O=C(Cc1c[nH]c2ncc(-c3ccc(Cl)cc3)cc12)NCc1cccnc1` [NCGC00412438-01], the AC50 [2] is reported as 1.72 µM, the “Max Resp (signal direction of the dose response)” value ([3]; Decrease = decreasing P. berghei viability with dose, Increase = increasing signal, Inactive = no dose response) is reported as “Decrease” and the AC50 ([3]; Hill fit, 50% of maximum activity response, read-out: AC50) is reported as 2 µM. For the same compound, the “Log AC50 (M)” value ([3]; log10 of molar AC50 from Hill fit) was -5.700 M, the AC50 ([3]; Plasmodium berghei, Hill fit, 50% of maximum activity response, read-out: AC50) was 1.26 µM and the AC50 ([3]; Plasmodium berghei, log10 of molar AC50 from Hill fit, read-out: Log AC50 (converted)) was 1.26 µM.

With `CC(=O)Nc1ccc(CN2CC(N(C)c3ccccc3C)C2)cc1` [NCGC00476647-01] the AC50 [2] was 12.2 µM.

For `Cc1ccccc1N(C)C1CN(Cc2ccc(C#N)cc2)C1` [NCGC00476680-01], the AC50 [2] was 3.85 µM.

In the case of `Cc1ccccc1N(C)C1CN(Cc2ccccc2)C1` [NCGC00476681-01], the AC50 [2] is reported as 19.3 µM.

For `Fc1ccc(OC2CN(CC3CCCCC3)C2)cc1F` [NCGC00476687-01], the AC50 [2] was 17.2 µM.

For `Cc1cc(OC2CN([S+](=O)([O-])c3cccs3)C2)ccc1F` [NCGC00476695-01], the AC50 [2] was 15.3 µM.

With `O=C1CC2(CCN(Cc3ccccc3)CC2)Oc2ccccc21` [NCGC00476829-01] the AC50 [2] was 13.7 µM.

With `O=C1CC2(CCN(Cc3cccs3)CC2)Oc2cc(Cl)ccc21` [NCGC00476854-01] the AC50 [2] was 5.31 µM.

With `O=C1CC2(CCN(CC3CCCCC3)CC2)Oc2cc(Cl)ccc21` [NCGC00476867-01] the AC50 [2] was 1.5 µM.

Compound `O=C1Nc2ccccc2CC12CCN2Cc1ccccn1` (stereo not shown) [NCGC00477299-01] has an AC50 [2] of 4.33 µM.

For `O=C1NC2(CCN(Cc3ccc(C(F)(F)F)cc3)CC2)COc2ccccc21` [NCGC00477447-01], the AC50 [2] was 8.41 µM.

In the case of `CN(C)c1ccc(CN2CCC3(CC2)COc2ccccc2C(=O)N3)cc1` [NCGC00477464-01], the AC50 [2] is reported as 2.66 µM.

Compound `O=C1NC2(CCN(C(=O)c3ccc(C(F)(F)F)cc3)CC2)COc2ccccc21` [NCGC00477468-01] has an AC50 [2] of 8.41 µM.

Compound `c1ccc2c(c1)CNC1(CCN(Cc3cccc4ccccc34)CC1)CO2` [NCGC00477546-01] has an AC50 [2] of 7.5 µM.

Work on `O=C(c1ccccc1F)N1CCC2(CC1)COc1ccccc1CN2` [NCGC00477550-01] yielded an AC50 [2] of 4.33 µM.

With `COc1ccc(C(=O)N2CCC3(CC2)COc2ccccc2CN3)cc1` [NCGC00477552-01] the AC50 [2] was 10.6 µM.

`O=C(c1ccc2c(c1)OCO2)N1CCC2(CC1)COc1ccccc1CN2` [NCGC00477555-01] gave an AC50 [2] of 5.31 µM.

`O=c1nc(C2CCCN(CC3CCCCC3)C2)[nH]n1-c1ccc(Cl)cc1` (stereo not shown) [NCGC00477729-01] gave an AC50 [2] of 6.68 µM.

`O=c1nc(C2CCCN(Cc3ccccn3)C2)[nH]n1-c1ccc(Cl)cc1` (stereo not shown) [NCGC00477746-01] gave an AC50 [2] of 2.37 µM.

In the case of `Cc1ccc([S+](=O)([O-])N2CCC3(CCN(Cc4cccs4)c4ccccc4O3)CC2)cc1` [NCGC00478057-01], the AC50 [2] is reported as 18.8 µM.

In the case of `CCOc1ccccc1CN1CCC2(CCN(CCC(C)C)CC2)Oc2ccccc21` [NCGC00478188-01], the AC50 [2] is reported as 3.35 µM.

In the case of `O=C(Nc1ccc(Cl)cc1)N1CCC2(CC1)CCN(Cc1cccs1)c1ccccc1O2` [NCGC00478210-01], the AC50 [2] is reported as 8.41 µM.

Compound `O=C1CC2(CCN([S+](=O)([O-])c3cccc(C(F)(F)F)c3)CC2)Oc2ccccc2N1c1ccccc1` [NCGC00478390-01] has an AC50 [2] of 6.68 µM.

For `O=C1NCN(Cc2ccc(Cl)cc2)C12CCN(CC1CC1)CC2` [NCGC00478768-01], the AC50 [2] was 9.68 µM.

In the case of `CC(C)CCN1CCn2c(nn(-c3ccc([N+](=O)[O-])cc3)c2=O)C1` [NCGC00479600-01], the AC50 [2] is reported as 17.2 µM.

Compound `COc1ccccc1CN1CCn2c(nn(-c3ccc([N+](=O)[O-])cc3)c2=O)C1` [NCGC00479607-01] has an AC50 [2] of 5.96 µM.

For `Cc1nc2c(c(-c3ccc(O)cc3)n1)CN(Cc1ccc(C(F)(F)F)cc1)CCC2` [NCGC00480263-01], the AC50 [2] was 4.22 µM.

`CC(C)c1nc2c(c(-c3ccc(O)cc3)n1)CN(Cc1cccc(F)c1)CC2` [NCGC00480376-01] showed an AC50 [2] of 9.44 µM.

`Oc1ccc(-c2nc(C3CC3)nc3c2CN(CC2CCCCC2)CC3)cc1` [NCGC00480438-01] gave an AC50 [2] of 6.68 µM.
